Read-outs that look alike come from different tables or passages of the source.
What was measured:
Orai1/STIM1 = biological target: T1, Orai1/STIM1 (Homo sapiens, UniProt Q96D31); assay: Fluorescence-based assay of store-operated calcium entry in Orai1/STIM1 stable cells; format: cell-based; settings: for IC50: HEK-293 cells stably expressing human STIM1 and Orai1, 50% inhibition of Peak-Basal fluorescence signal, read-out: Orai1/STIM1 (IC50, μmol)
T1 construct: expressed in transfected cells
Method: A. Fluorescence-Based Assay of Store-Operated Calcium Entry in Orai1/STIM1 Stable Cells.
Cells stably expressing recombinant human STIM1 and Orai1 are generated by transfecting a human Orai1 expression plasmid (pcDNA3.1-Orai1-cmyc) into HEK-293 cells stably overexpressing human STIM1 (Roos et al. 2005 JCB 169(3): 435-445). Colonies of cells stably expressing both STIM1 and Orai1 proteins are selected and then subcloned by limiting dilution. Cells were cultured at 37° C./6% CO2 in complete medium with 10% FBS and appropriate selection markers.
The day prior to performing the assay Orai1/STIM1 stable cells are plated in 50 μL of complete medium at 90-95% confluence in a 384 well plate. Cells are grown at 37° C./6% CO2 overnight. On the day of the assay, 1.5 μM fluo-4-AM (Invitrogen) in complete medium is added to the cells, which are then incubated for 1 hour at RT. Cells are washed once in Ca^2+-free HBSS (Hank's buffered saline solution) and 35 μl of Ca^2+-free HBSS is added to each well. Test compounds are added to wells in a 10 μL Ca^2+-free HBSS solution, prepared at 4.5× the desired final concentration, and incubated for 30 minutes at RT. The initial baseline fluorescence signal is then measured with a FLIPR^384 (Molecular Devices) plate reader. Calcium entry is initiated by adding 5 μl of 10× CaCl2 (10 mM) in HBSS, and changes in cellular fluorescence are measured with the FLIPR^384 plate reader. In each well, the magnitude of the fluorescence signal as a result of calcium entry into the cell is determined by calculating the difference between the peak fluorescence signal measured after calcium addition and the initial baseline fluorescence signal (designated Peak-Basal). IC50 values are typically calculated as the concentration that inhibited 50% of the Peak-Basal signal.

RBL-2H3 cells = assay: Fluorescence-based assay of store-operated calcium entry in RBL-2H3 cells; format: cell-based, rat; settings: for IC50: thapsigargin, 50% inhibition of Upslope, read-out: RBL-2H3 (IC50, μmol)
Method: B. Fluorescence-Based Assay of Store-Operated Calcium Entry in RBL-2H3 Cells.
RBL-2H3 cells are obtained from ATCC and maintained in complete medium with 10% FBS at 37° C./6% CO2.
The day prior to performing the assay, RBL-2H3 cells are plated in 50 μL of complete medium in a 384 well plate. Cells are grown at 37° C./6% CO2 overnight and grow to 50-60% confluence by the next day. On the assay day, 1.5 μM Fluo-4-AM dye (Invitrogen) in complete medium is added and incubated for 1 hour at RT. Cells are washed twice in Ca^2+-free HBSS buffer and 35 μL Ca^2+-free HBSS buffer is added to each well. 10 μL of a test compound prepared in a Ca^2+-free HBSS solution at 4.5× of the desired concentration is added to a well and incubated for 5 minutes at RT. 10 μL of thapsigargin prepared in a Ca^2+-free HBSS solution at 5.5× of the desired concentration (5.5 uM) is added to each well and incubated for an additional 25 minutes. The initial baseline fluorescence signal is measured with a FLIPR^384 (Molecular Devices) plate reader. 5 μL of 12× calcium in HBSS (12 mM) is added and changes in cellular fluorescence are measured with the FLIPR^384 plate reader. In each well, the change in the fluorescent signal as a function of time due to calcium entry into the cell is determined by calculating the difference between the fluorescent signal measured 7 seconds after calcium addition and the initial baseline fluorescence signal at time zero (t=0). This parameter is designated Upslope. The IC50 value is calculated as the concentration at which 50% of the Upslope is inhibited.

T1 sequence (Q96D31 whole entry): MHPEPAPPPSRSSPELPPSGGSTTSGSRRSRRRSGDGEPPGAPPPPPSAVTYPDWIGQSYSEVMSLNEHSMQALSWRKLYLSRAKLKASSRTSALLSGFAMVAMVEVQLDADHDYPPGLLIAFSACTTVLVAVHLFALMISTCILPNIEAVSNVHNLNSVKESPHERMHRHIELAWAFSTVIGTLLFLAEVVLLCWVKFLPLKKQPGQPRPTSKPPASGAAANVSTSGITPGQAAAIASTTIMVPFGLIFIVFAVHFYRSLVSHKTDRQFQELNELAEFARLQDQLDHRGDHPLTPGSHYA

Row | Molecule | IC50 (Orai1/STIM1) [nM] | IC50 (RBL-2H3 cells; Rattus norvegicus, RBL-2H3) [nM] | Orai1/STIM1 efficacy (Orai1/STIM1; given in place of a class) [%] | IC50 (RBL-2H3 cells) [nM] | RBL-2H3 efficacy (RBL-2H3 cells; given in place of a class) [%]
1 | Cc1ccc(F)c(C(=O)Nc2cnc(-c3cn(-c4nccs4)nc3C)cn2)c1F [Example 30, 2,6-difluoro-3-methyl-N-(5-(3-methyl-1-(thiazol-2-yl)-1H-pyrazol-4-yl)pyrazin-2-yl)benzamide] | 600 to 1200 | < 600 |  |  | 
2 | Cc1nn(-c2nccs2)cc1-c1ccc(NC(=O)c2ccccc2F)cc1 [Example 2, 2-fluoro-N-(4-(3-methyl-1-(thiazol-2-yl)-1H-pyrazol-4-yl)phenyl)benzamide] | < 600 | < 600 |  |  | 
3 | Cc1cccc(F)c1C(=O)Nc1ccc(-c2cn(-c3nccs3)nc2C)c(F)c1 [Example 12, 2-fluoro-N-(3-fluoro-4-(3-methyl-1-(thiazol-2-yl)-1H-pyrazol-4-yl)phenyl)-6-methylbenzamide] | 600 to 1200 | < 600 |  |  | 
4 | Cc1nn(-c2nccs2)cc1-c1ccc(NC(=O)c2cc(F)nc(F)c2)cc1F [Example 16, 2,6-difluoro-N-(3-fluoro-4-(3-methyl-1-(thiazol-2-yl)-1H-pyrazol-4-yl)phenyl)isonicotinamide] | < 600 | < 600 |  |  | 
5 | Cc1nn(-c2nccs2)cc1-c1ccc(NC(=O)c2c(F)cc(F)cc2F)nc1 [Example 21, 2,4,6-trifluoro-N-(5-(3-methyl-1-(thiazol-2-yl)-1H-pyrazol-4-yl)pyridin-2-yl)benzamide] | < 600 | < 600 |  |  | 
6 | N-(4-(3-ethyl-1-(thiazol-2-yl)-1H-pyrazol-4-yl)phenyl)-2,3,6-trifluorobenzamide [Example 9] | 600 to 1200 |  |  | < 600 | 
7 | O=C(Nc1ccc(-c2cn(-c3nccs3)nc2C2CC2)c(F)c1)c1c(F)ccc(F)c1F [Example 42, N-(4-(3-cyclopropyl-1-(thiazol-2-yl)-1H-pyrazol-4-yl)-3-fluorophenyl)-2,3,6-trifluorobenzamide] | 600 to 1200 | < 600 |  |  | 
8 | N-(5-(3-ethyl-1-(thiazol-2-yl)-1H-pyrazol-4-yl)pyrazin-2-yl)-2,4,6-trifluorobenzamide [Example 40] | < 600 |  |  | < 600 | 
9 | O=C(Nc1ccc(-c2cn(-c3nccs3)nc2C2CC2)cn1)c1c(F)ccc(F)c1F [Example 45, N-(5-(3-cyclopropyl-1-(thiazol-2-yl)-1H-pyrazol-4-yl)pyridin-2-yl)-2,3,6-trifluorobenzamide] | 600 to 1200 | < 600 |  |  | 
10 | CCc1nn(-c2nccs2)cc1-c1cnc(NC(=O)c2c(F)cccc2F)cn1 [Example 38, N-(5-(3-ethyl-1-(thiazol-2-yl)-1H-pyrazol-4-yl)pyrazin-2-yl)-2,6-difluorobenzamide] | < 600 | < 600 |  |  | 
11 | CCc1nn(-c2nccs2)cc1-c1ccc(NC(=O)c2c(C)cccc2F)cc1 [Example 8, N-(4-(3-ethyl-1-(thiazol-2-yl)-1H-pyrazol-4-yl)phenyl)-2-fluoro-6-methylbenzamide] | 600 to 1200 | < 600 |  |  | 
12 | Cc1nn(-c2nccs2)cc1-c1ccc(NC(=O)c2ccc(F)c(F)c2F)nc1 [Example 22, 2,3,4-trifluoro-N-(5-(3-methyl-1-(thiazol-2-yl)-1H-pyrazol-4-yl)pyridin-2-yl)benzamide] | 600 to 1200 |  |  |  | 
13 | Cc1cccc(F)c1C(=O)Nc1ccc(-c2cn(-c3nccs3)nc2C)cc1 [Example 3, 2-fluoro-6-methyl-N-(4-(3-methyl-1-(thiazol-2-yl)-1H-pyrazol-4-yl)phenyl)benzamide] | < 600 | < 600 |  |  | 
14 | Cc1nn(-c2nccs2)cc1-c1cnc(NC(=O)c2c(F)cccc2F)cn1 [Example 24, 2,6-difluoro-N-(5-(3-methyl-1-(thiazol-2-yl)-1H-pyrazol-4-yl)pyrazin-2-yl)benzamide] | < 600 | < 600 |  |  | 
15 | O=C(Nc1cnc(-c2cn(-c3nccs3)nc2C2CC2)cn1)c1c(F)cccc1F [Example 47, N-(5-(3-cyclopropyl-1-(thiazol-2-yl)-1H-pyrazol-4-yl)pyrazin-2-yl)-2,6-difluorobenzamide] | > 1200 | < 600 |  |  | 
16 | Cc1nn(-c2nccs2)cc1-c1ccc(NC(=O)c2c(F)ccc(F)c2F)nc1 [Example 20, 2,3,6-trifluoro-N-(5-(3-methyl-1-(thiazol-2-yl)-1H-pyrazol-4-yl)pyridin-2-yl)benzamide] | < 600 | < 600 |  |  | 
17 | Cc1nn(-c2nccs2)cc1-c1cnc(NC(=O)c2ccc(F)c(F)c2F)cn1 [Example 29, 2,3,4-trifluoro-N-(5-(3-methyl-1-(thiazol-2-yl)-1H-pyrazol-4-yl)pyrazin-2-yl)benzamide] | > 1200 |  |  |  | 

Continued, in another order:

Row | IC50 (Orai1/STIM1) [nM] | IC50 (RBL-2H3 cells; Rattus norvegicus, RBL-2H3) [nM] | Orai1/STIM1 efficacy (Orai1/STIM1; given in place of a class) [%] | Molecule | IC50 (RBL-2H3 cells) [nM] | RBL-2H3 efficacy (RBL-2H3 cells; given in place of a class) [%]
18 | < 600 | < 600 |  | Cc1ccc(F)c(C(=O)Nc2ccc(-c3cn(-c4ccccc4F)nc3C)cn2)c1F [Example 60, 2,6-difluoro-N-(5-(1-(2-fluorophenyl)-3-methyl-1H-pyrazol-4-yl)pyridin-2-yl)-3-methylbenzamide] |  | 
19 | < 600 | < 600 |  | O=C(Nc1cnc(-c2cn(-c3nccs3)nc2C2CC2)cn1)c1ccccc1F [Example 50, N-(5-(3-cyclopropyl-1-(thiazol-2-yl)-1H-pyrazol-4-yl)pyrazin-2-yl)-2-fluorobenzamide] |  | 
20 | > 1200 | < 600 |  | O=C(Nc1ccc(-c2cn(-c3nccs3)nc2C(F)(F)F)c(F)c1)c1c(F)cccc1F [Example 51, 2,6-difluoro-N-(3-fluoro-4-(1-(thiazol-2-yl)-3-(trifluoromethyl)-1H-pyrazol-4-yl)phenyl)benzamide] |  | 
21 | 600 to 1200 | < 600 |  | Cc1nn(-c2nccs2)cc1-c1cnc(NC(=O)c2c(F)ccc(F)c2F)s1 [Example 67, 2,3,6-trifluoro-N-(5-(3-methyl-1-(thiazol-2-yl)-1H-pyrazol-4-yl)thiazol-2-yl)benzamide] |  | 
22 | 600 to 1200 | > 1200 |  | Cc1nn(-c2ccccc2F)cc1-c1ccc(NC(=O)c2ccccc2F)nc1 [Example 58, 2-fluoro-N-(5-(1-(2-fluorophenyl)-3-methyl-1H-pyrazol-4-yl)pyridin-2-yl)benzamide] |  | 
23 | 600 to 1200 | < 600 |  | O=C(Nc1ccc(-c2cn(-c3nccs3)nc2C(F)(F)F)cn1)c1c(F)ccc(F)c1F [Example 53, 2,3,6-trifluoro-N-(5-(1-(thiazol-2-yl)-3-(trifluoromethyl)-1H-pyrazol-4-yl)pyridin-2-yl)benzamide] |  | 
24 |  |  | <50 | Cc1cnc(-n2cc(-c3ccc(NC(=O)c4c(F)cccc4F)nc3)c(C)n2)s1 [Example 63, 2,6-difluoro-N-(5-(3-methyl-1-(5-methylthiazol-2-yl)-1H-pyrazol-4-yl)pyridin-2-yl)benzamide] |  | <50
25 | 600 to 1200 | < 600 |  | Cc1cccc(F)c1C(=O)Nc1ccc(-c2cn(-c3nccs3)nc2C)s1 [Example 71, 2-fluoro-6-methyl-N-(5-(3-methyl-1-(thiazol-2-yl)-1H-pyrazol-4-yl)thiophen-2-yl)benzamide] |  | 
26 | < 600 | < 600 |  | O=C(Nc1ccc(-c2cn(-c3nccs3)nc2C(F)(F)F)cn1)c1c(F)cccc1F [Example 52, 2,6-difluoro-N-(5-(1-(thiazol-2-yl)-3-(trifluoromethyl)-1H-pyrazol-4-yl)pyridin-2-yl)benzamide] |  | 
27 | > 1200 | > 1200 |  | Cc1nn(-c2ccccc2F)cc1-c1ccc(NC(=O)c2ccccc2OC(F)F)nc1 [Example 61, 2-(difluoromethoxy)-N-(5-(1-(2-fluorophenyl)-3-methyl-1H-pyrazol-4-yl)pyridin-2-yl)benzamide] |  | 
